How the values were obtained:
Format in all cases: cell-based
[1] = biological target: ATM kinase (Homo sapiens (Human), UniProt Q13315); experiment: Assay a) ATM cellular potency assay (pATM Ser1981 in X-ray irradiated HT29 cells); conditions: HT29 cells, pATM Ser1981 after X-ray irradiation; geometric mean where repeated; read-out: Assay a) ATM Cell IC50
[2] = biological target: ATR kinase (Homo sapiens (Human), UniProt Q13535); experiment: Assay b) ATR cellular potency assay (pChk1 Ser345 in HT29 cells treated with 4NQO); conditions: HT29 cells, pChk1 Ser345 after 4NQO; geometric mean where repeated; read-out: Assay b) ATR Cell IC50
[3] = biological target: PI3K-α (Homo sapiens, UniProt P42336); experiment: Assay c) PI3K cellular potency assay (phospho-Akt T308 ELISA in BT474 cells); conditions: BT474 cells, phospho-Akt T308, 2 h; geometric mean where repeated; read-out: Assay c) PI3Kα Cell IC50
[4] = biological target: mTOR (Homo sapiens (Human), UniProt P42345); experiment: Assay d) mTOR cellular potency assay (phospho-AKT Ser473 in MDA-MB-468 cells); conditions: MDA-MB-468 cells, phospho-AKT Ser473, 2 h; geometric mean where repeated; read-out: Assay d) mTOR Cell IC50

Chain of PI3K-α (P42336 whole entry, looked up): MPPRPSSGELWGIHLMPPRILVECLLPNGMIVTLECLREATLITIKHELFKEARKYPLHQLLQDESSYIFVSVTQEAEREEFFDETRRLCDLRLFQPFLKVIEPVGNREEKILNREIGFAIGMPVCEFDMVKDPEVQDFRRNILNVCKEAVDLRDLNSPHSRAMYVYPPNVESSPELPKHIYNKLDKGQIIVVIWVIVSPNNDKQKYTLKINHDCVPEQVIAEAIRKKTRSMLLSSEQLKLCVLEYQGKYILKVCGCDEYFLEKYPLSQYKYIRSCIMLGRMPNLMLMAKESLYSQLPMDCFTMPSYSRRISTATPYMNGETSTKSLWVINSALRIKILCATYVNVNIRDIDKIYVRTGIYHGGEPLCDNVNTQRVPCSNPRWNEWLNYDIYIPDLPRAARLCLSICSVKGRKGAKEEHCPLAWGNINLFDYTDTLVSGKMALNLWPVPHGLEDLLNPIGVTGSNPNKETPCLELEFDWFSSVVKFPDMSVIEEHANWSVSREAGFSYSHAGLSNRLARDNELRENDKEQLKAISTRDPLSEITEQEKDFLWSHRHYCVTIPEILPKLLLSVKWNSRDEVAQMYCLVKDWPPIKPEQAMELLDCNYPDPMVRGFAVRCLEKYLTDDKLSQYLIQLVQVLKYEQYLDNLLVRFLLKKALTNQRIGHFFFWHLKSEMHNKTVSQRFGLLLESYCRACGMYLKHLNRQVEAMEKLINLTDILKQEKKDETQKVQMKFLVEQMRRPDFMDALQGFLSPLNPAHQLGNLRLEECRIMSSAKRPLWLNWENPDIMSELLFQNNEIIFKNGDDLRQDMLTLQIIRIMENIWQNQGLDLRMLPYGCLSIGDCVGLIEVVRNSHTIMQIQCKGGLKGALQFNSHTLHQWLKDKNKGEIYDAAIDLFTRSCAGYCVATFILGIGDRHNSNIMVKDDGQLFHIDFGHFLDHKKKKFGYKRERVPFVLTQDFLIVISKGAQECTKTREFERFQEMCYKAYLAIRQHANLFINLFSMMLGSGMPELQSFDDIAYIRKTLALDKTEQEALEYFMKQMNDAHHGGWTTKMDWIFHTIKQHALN
Chain of ATR kinase (Q13535 whole entry): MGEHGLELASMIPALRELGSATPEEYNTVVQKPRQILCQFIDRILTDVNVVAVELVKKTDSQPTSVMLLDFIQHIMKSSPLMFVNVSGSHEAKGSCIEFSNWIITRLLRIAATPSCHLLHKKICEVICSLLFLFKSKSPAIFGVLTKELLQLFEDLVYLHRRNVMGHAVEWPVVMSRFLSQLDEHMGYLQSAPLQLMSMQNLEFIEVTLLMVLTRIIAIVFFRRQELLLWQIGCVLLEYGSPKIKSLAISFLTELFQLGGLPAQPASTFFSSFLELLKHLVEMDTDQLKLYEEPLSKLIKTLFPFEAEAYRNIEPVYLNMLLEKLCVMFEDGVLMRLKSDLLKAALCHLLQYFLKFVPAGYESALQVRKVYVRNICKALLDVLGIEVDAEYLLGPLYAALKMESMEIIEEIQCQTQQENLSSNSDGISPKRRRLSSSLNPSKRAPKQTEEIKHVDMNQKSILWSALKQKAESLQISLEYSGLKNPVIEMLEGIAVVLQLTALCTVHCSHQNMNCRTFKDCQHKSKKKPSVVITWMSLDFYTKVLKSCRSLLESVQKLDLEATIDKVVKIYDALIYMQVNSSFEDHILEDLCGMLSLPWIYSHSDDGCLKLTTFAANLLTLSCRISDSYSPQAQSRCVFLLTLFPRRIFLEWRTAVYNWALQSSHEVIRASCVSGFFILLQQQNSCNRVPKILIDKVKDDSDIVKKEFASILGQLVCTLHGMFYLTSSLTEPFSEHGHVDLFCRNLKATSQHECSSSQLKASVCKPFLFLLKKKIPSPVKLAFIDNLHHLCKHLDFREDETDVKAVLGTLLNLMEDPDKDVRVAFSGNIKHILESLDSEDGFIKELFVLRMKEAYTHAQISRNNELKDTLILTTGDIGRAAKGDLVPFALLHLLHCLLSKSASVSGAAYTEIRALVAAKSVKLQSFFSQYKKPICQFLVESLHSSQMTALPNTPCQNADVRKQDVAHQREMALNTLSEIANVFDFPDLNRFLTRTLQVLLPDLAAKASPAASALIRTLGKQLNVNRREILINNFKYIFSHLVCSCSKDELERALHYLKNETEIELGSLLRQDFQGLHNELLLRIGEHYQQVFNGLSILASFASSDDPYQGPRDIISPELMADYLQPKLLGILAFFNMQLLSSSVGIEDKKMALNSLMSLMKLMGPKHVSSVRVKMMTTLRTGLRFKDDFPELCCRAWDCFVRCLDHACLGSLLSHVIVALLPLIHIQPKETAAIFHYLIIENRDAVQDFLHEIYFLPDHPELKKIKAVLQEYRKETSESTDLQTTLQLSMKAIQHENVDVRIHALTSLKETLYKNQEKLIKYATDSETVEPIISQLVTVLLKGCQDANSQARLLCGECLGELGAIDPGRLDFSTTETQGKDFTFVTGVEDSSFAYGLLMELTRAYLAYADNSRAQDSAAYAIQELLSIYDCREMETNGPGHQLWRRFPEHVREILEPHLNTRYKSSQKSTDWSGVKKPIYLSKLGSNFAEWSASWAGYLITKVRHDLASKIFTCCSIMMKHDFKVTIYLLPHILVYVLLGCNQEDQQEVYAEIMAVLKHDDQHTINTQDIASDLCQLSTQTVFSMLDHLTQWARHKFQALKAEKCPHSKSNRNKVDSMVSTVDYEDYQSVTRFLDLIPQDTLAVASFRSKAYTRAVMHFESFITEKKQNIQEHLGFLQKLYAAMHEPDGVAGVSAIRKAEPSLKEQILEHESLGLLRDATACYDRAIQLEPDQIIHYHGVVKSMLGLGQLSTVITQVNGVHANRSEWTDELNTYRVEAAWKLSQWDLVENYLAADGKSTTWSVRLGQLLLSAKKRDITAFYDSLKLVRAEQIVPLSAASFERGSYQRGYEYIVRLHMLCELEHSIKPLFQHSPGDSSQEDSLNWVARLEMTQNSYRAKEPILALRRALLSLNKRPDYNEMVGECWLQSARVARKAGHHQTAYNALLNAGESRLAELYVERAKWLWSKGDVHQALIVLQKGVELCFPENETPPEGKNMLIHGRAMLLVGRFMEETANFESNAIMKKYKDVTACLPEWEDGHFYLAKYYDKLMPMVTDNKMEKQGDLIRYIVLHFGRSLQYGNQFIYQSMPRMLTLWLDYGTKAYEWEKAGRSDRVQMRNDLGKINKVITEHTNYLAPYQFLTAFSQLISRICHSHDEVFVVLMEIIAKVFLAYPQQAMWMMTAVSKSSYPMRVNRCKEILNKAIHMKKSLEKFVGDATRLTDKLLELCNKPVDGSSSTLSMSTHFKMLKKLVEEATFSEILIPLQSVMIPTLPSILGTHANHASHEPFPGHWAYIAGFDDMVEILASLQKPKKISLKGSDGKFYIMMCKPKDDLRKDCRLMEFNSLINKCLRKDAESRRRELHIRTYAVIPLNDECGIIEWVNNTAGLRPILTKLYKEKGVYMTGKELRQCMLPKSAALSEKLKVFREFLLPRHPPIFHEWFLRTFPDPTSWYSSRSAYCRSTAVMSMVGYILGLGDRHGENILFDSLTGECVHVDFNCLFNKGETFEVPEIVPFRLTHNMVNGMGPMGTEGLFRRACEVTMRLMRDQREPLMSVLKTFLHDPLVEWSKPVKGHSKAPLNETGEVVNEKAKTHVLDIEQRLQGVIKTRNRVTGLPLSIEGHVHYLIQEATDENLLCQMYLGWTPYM
Chain of ATR kinase (Q8WXE1 whole entry partner): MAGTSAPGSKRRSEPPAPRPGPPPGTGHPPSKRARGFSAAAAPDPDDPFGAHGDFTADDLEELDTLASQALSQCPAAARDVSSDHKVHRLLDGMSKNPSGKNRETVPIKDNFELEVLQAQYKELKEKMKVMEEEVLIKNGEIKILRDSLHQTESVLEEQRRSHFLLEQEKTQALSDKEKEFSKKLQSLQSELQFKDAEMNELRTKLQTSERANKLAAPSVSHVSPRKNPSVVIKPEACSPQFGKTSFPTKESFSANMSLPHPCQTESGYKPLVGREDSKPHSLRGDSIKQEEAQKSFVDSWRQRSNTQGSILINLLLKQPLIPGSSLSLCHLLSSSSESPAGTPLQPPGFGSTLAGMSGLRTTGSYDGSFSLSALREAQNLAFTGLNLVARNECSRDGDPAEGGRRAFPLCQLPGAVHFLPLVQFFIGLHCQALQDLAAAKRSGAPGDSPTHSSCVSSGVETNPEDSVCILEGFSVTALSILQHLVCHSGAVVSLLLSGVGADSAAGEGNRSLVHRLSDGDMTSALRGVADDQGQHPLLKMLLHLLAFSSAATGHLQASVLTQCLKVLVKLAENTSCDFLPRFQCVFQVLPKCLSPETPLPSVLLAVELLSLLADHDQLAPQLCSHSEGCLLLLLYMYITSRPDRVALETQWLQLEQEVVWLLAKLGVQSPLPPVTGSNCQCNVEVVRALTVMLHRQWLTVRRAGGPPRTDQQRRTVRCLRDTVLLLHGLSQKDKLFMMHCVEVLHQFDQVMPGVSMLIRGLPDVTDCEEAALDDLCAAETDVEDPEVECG

| Structure (SMILES) | IC50 [1] [µM] | IC50 [2] [µM] | IC50 [3] [µM] | IC50 [4] [µM] |
| --- | --- | --- | --- | --- |
| CN(C)CCCOc1ccc(-c2ccc3ncc4c(c3c2)n([C@@H]2CCCOC2)c(=O)n4C)c(F)n1 [Example 22, 8-[6-(3-dimethylaminopropoxy)-2-fluoropyridin-3-yl]-3-methyl-1-[(3R)-oxan-3-yl]imidazo[5,4-c]quinolin-2-one] | 0.000552 | > 30 | 0.849 | 1.37 |
| CN(C)CCCOc1ccc(-c2ccc3ncc4c(c3c2)n(C2CCOCC2)c(=O)n4C)c(F)n1 [Example 21, 8-[6-(3-dimethylaminopropoxy)-2-fluoropyridin-3-yl]-3-methyl-1-(oxan-4-yl)imidazo[5,4-c]quinolin-2-one] | 0.000301 | > 30 | 0.68 | 0.797 |
| CO[C@H]1C[C@@H](n2c(=O)n(C)c3cnc4cc(F)c(-c5ccc(OCCCN(C)C)nc5)cc4c32)C1 [Example 6, 8-[6-(3-dimethylaminopropoxy)pyridin-3-yl]-7-fluoro-1-(cis-3-methoxycyclobutyl)-3-methylimidazo[4,5-c]quinolin-2-one] | 0.00105 | > 30 | > 30 | > 16.9 |
| CO[C@H]1C[C@@H](n2c(=O)[nH]c3cnc4ccc(-c5ccc(OCCCN(C)C)nc5)cc4c32)C1 [Example 12, 8-[6-(3-dimethylaminopropoxy)pyridin-3-yl]-1-(cis-3-methoxycyclobutyl)-3H-imidazo[4,5-c]quinolin-2-one] | 0.00103 | > 25.2 | 0.769 | 0.54 |
| CO[C@H]1CC[C@H](n2c(=O)n(C)c3cnc4ccc(-c5ccc(OCCCN6CCCCC6)nc5)cc4c32)C1 [Example 65, 1-[(1S,3S)-3-Methoxycyclopentyl]-3-methyl-8-[6-[3-(1-piperidyl)propoxy]-3-pyridyl]imidazo[4,5-c]quinolin-2-one] | 0.00022 | > 26.6 | 1.84 | 6.34 |
| CN(C)CCCOc1ccc(-c2ccc3ncc4c(c3c2)n(C2(C)CCOCC2)c(=O)n4C)cn1 [Example 7, 8-[6-(3-dimethylaminopropoxy)pyridin-3-yl]-3-methyl-1-(4-methyloxan-4-yl)imidazo[5,4-c]quinolin-2-one] | 0.00096 | 10.8 | 0.541 | 0.266 |
| CO[C@H]1CC[C@H](n2c(=O)n(C)c3cnc4ccc(-c5ccc(OCCCN(C)C)nc5)cc4c32)C1 [Example 26, 8-[6-(3-Dimethylaminopropoxy)pyridin-3-yl]-1-[(1S,3S)-3-methoxycyclopentyl]-3-methylimidazo[4,5-c]quinolin-2-one] | 0.000152 | > 21.8 | 0.331 | 0.36 |
| Cn1c(=O)n(C2CCOCC2)c2c3cc(-c4ccc(OCCCN5CCCCC5)nc4)ccc3ncc21 [Example 37, 3-methyl-1-(oxan-4-yl)-8-[6-(3-piperidin-1-ylpropoxy)pyridin-3-yl]imidazo[5,4-c]quinolin-2-one] | 0.0012 | > 29.4 | 20.7 | 12.4 |
| CN(C)CCCOc1ccc(-c2ccc3ncc4[nH]c(=O)n(C5CCOCC5)c4c3c2)cn1 [Example 13, 8-[6-(3-dimethylaminopropoxy)pyridin-3-yl]-1-(oxan-4-yl)-3H-imidazo[4,5-c]quinolin-2-one] | 0.00322 | > 30 | 1.52 | 0.248 |
| CN(C)CCCOc1ccc(-c2cc3c(cc2F)ncc2c3n(C3CCOCC3)c(=O)n2C)cn1 [Example 8, 8-[6-(3-dimethylaminopropoxy)pyridin-3-yl]-7-fluoro-3-methyl-1-(oxan-4-yl)imidazo[5,4-c]quinolin-2-one] | 0.000782 | > 30 | 18.1 | 14 |
| CNCCCOc1ccc(-c2ccc3ncc4c(c3c2)n([C@@H]2CCCOC2)c(=O)n4C)cn1 [Example 43, 3-methyl-8-[6-[3-(methylamino)propoxy]-3-pyridyl]-1-[(3R)-tetrahydropyran-3-yl]imidazo[4,5-c]quinolin-2-one] | 0.000592 | 2.69 | 0.167 | 0.262 |
| Cn1c(=O)n(C2CCC2)c2c3cc(-c4ccc(OCCCN5CCCC5)nc4)ccc3ncc21 [Example 58, 1-cyclobutyl-3-methyl-8-[6-(3-pyrrolidin-1-ylpropoxy)-3-pyridyl]imidazo[4,5-c]quinolin-2-one] | 0.00031 | > 28.1 | > 9.56 | 7.29 |
